Consider 4 compounds from patent US6291432A (Japan Energy Corporation, priority 1996, dated 2001).

Series [1] concerns the target T1, recombinant HIV-1 protease (Human immunodeficiency virus type 1 group M subtype B, UniProt P04585).
T1 construct: measured using a recombinant HIV-1 protease
The series can be described thus: HIV protease inhibition activity (enzyme activity inhibition rate). Type of series: biochemical. The note with it: 50 nM final concentration of test compound; 60 min at 37° C.; read-out: Enzyme activity inhibition rate (%) (addition concentration of 50 nM). Here is the method:
The protease activity was measured using a recombinant HIV-1 protease (see Biochemistry, 250 (9)-264 (1990)) and a synthesized peptide substrate. The inhibition rate was calculated by determining a peptide fragment generated by cleavage between Tyr-Pro of the synthesized substrate after the reaction of 60 min at 37° C. using a reversed phase HPLC in the presence of the test compounds in various concentrations (see, for example, Japanese Patent Application Laid-open No. 170722/1993).
Examples of the evaluation results of the HIV protease inhibition activity of the tripeptide compound of the present invention by the above-described method is shown in Table 1. […] The concentration of the test compounds in Table 1 represents the final concentration in the reaction mixture.

Series [2] has as its target T1, recombinant HIV-1 protease. The series is described as follows: Evaluation of enzyme inhibition constant Ki. Type of series: biochemical. Here is the method: The synthesized peptide substrate having a sequence of H-Lys-Ala-Arg-Val-Tyr-Phe (4-NO2)-Glu-Ala-Nle-NH2 (SEQ ID NO. 1) was used in this experiment. The enzyme reaction was measured using a reversed phase HPLC by determining the C-terminal peptide fraction produced by cleavage just behind Tyr in the synthesized substrate which is obtained by reacting the following composition for 15 min. at 37° C. and stopping the reaction by the addition of 1N HCl (75 μl).
Composition of reaction mixture
Recombinant HIV-1 protease enzyme solution 10 μl
0.5 mM synthetic substrate aqueous solution 10 μl
DMSO Inhibitor solution 5 μl
0.2 M MES solution 25 μl
(1 M NaCl, 2 mM EDTA-2Na, 2 mM DTT, pH 5.5)
Column: Waters Nova-pak C18 (3.9×75 mm)
Eluent: A; water (0.1% TFA)
B; acetonitrile (0.1% TFA)
Flow rate: 2 ml/min isocratic; 10% B solution
Detection: Fluorescence 305 nm, excitation 275 nm

Series [3] deals with HIV virus strain HIV-1 IIIB. The series is described as follows: Anti-HIV activity in HIV infected CEM-SS cells (XTT method). The class given is cell-based. The note with it: Human immunodeficiency virus 1, 144 h, HIV-1 IIIB infected CEM-SS cell, six days at 37° C. Here is the method: (§1) EP 0751145 A2). On a 96-well micro titre plate, the test compounds were added to the culture medium in various concentrations, then the HIV infected CEM-SS cell was added and incubated for six days at 37° C. using a CO2 incubator. The number of the living cells was then measured by a XTT method. On the other hand, in order to examine the cytotoxicity of the test compounds, the test compounds were added in various concentrations and the HIV virus non-infected cell was incubated under similar conditions. As the reference group, the HIV infected CEM-SS cell was incubated without the addition of the test compounds. Moreover, the HIV virus non-infected cell was incubated without the addition of the test compound as the control group. The anti-virus activity was evaluated in a concentration in which the cytotoxic effect caused by the HIV infected virus in the above HIV infected cell group was inhibited 50 percent (EC50, 50% effective concentration), and the cytotoxicity was evaluated in a concentration in which the cytotoxic effect by the addition of the test compound in the HIV virus non-infected cell group occurred at 50 percent (TC50, 50% cytotoxic concentration) respectively.
In general terms: Tetrazolium assays rely on reduction of a dye to a coloured formazan, in cell work by metabolically active cells.

Another series has as its system CEM-SS cell. The series is described as follows: Cytotoxicity in HIV virus non-infected CEM-SS cells (XTT method). Type of series: cell-based. The note with it: six days, highest concentration 1.0 μg/ml. How it is done: as §1
The nature of series [4]: Pharmacokinetics test (digestive tract absorption and metabolic characteristics) in rats. Type of series: in vivo. The note with it: 10 mg/kg; for F (biological utilization rate of administration in the duodenum): Id versus Iv; for MRT / T1/2 (λ): Iv; for T1/2 (λ): final phase half-life. How it is done:
The metabolic characteristics of the tripeptide compound of the present invention were evaluated using rats for a test animal. As the Control Example, the result of KNI-272 ((R)-N-tert-butyl-3-{(2S,3S)-2-hydroxy-3-[N-(isoquinolin-5-yloxy)acetyl-me thylthio-L-alanyl]amino-4-phenylbutanoyl}-1,3-thiazolidine-4-carboxamide; iQoa-Mta-Apns-Thz-NHtBu) which is a tripeptide derivative known in the art, is also shown. The amount administred was 10 mg/kg. The evaluated administration methods are a method (id) of administering a solution of a fixed amount of the test compound in the duodenum of a test animal, and a method (iv) of administering the solution intravenously. After administration, blood samples were taken from the test animal and concentrations of the residual test compound in the plasma were analyzed. As indices concerning pharmacokinetics, AUC (area under medicine concentration curve in plasma), MRT (mean residence time), t1/2 (λ) (final phase half-life period), and the biological utilization rate of administration in the duodenum F were calculated.

≈ marks a conversion by molar mass, not a printed value. Bounds are passed on as bounds.

On to `COc1cccc2cc(C(=O)N[C@H](C(=O)N[C@@H](Cc3ccccc3)[C@H](O)C(=O)N3CSC(C)(C)[C@H]3C(=O)NCc3ccccc3C)C(C)C)oc12` [Example 16, (R)-N-(2-methylbenzyl)-3-{(2S,3S)-3-[N-(7-methoxybenzofuran-2-carbonyl)-L-valyl]amino-2-hydroxy-4-phenylbutanoyl}-5,5-dimethyl-1,3-thiazolidine-4-carb oxamide], for which the inhibition at 0.05 µM in series [1] is 97.1%. In addition, the Ki (usually the dissociation constant of the complex between target and ligand, obtained from inhibition or displacement) in series [2] was determined as 0.014 nM. Also, a half-maximal effect in series [3] (EC50) was put at 0.0017 µg/mL (≈ 0.00238 µM). Moreover, the “Cytotoxicity TC50” value in the series with CEM-SS cell is more than 1.0 µg/mL. Also, in series [4] (Id (in the duodenum)), the AUC (in general, the area under the concentration-time curve, a measure of exposure) stood at 90 µg·min/mL. In series [4], the “F (biological utilization rate of administration in the duodenum)” value is given as 27%; the MRT (in general, the average time that molecules of a dose stay in the body) came to 1.12 h; the “T1/2 (λ)” value turned out to be 1.23 h. This compound gave an AUC in series [4] (Iv (intravenous)) of 322 µg·min/mL.
With `COC(=O)N[C@H](C(=O)N[C@@H](Cc1ccccc1)[C@H](O)C(=O)N1CSC(C)(C)[C@H]1C(=O)NCc1ccccc1C)C(C)C` [Example 27, (R)-N-(2-methylbenzyl)-3-{(2S,3S)-2-hydroxy-3-[(S)-2-(methoxycarbonyl)amino-3-methylbutanoyl]amino-4-phenylbutanoyl}-5,5-dimethyl-1,3-thiazolidine-4-c arboxamide], the inhibition at 0.05 µM in series [1] worked out at 94.9%. Moreover, the EC50 – broadly, the concentration that produces a half-maximal response – in series [3] is 0.026 µg/mL (≈ 0.0434 µM). Further, in the series with CEM-SS cell, the “Cytotoxicity TC50” value was more than 1.0 µg/mL. The same compound gave an AUC in series [4] (Id (in the duodenum)) of 87 µg·min/mL. For the same compound, in series [4], the “F (biological utilization rate of administration in the duodenum)” value was found to be 32%, the MRT was found to be 1.18 h and the “T1/2 (λ)” value is 1.45 h. The same compound registered an AUC in series [4] (Iv (intravenous)) of 272 µg·min/mL.
As for `CC(C)[C@H](NC(=O)COc1cccc(N(C)C)c1)C(=O)N[C@@H](Cc1ccccc1)[C@H](O)C(=O)N1CSC(C)(C)[C@H]1C(=O)NC(C)(C)C` [Example 35, (R)-N-tert-butyl-3-{(2S,3S)-2-hydroxy-3-[(S)-2-(3-dimethylaminophenoxyacetyl)amino-3-methylbutanoyl]amino-4-phenylbutanoyl}-5,5-dimethyl-1,3-thiazolidine-4-carboxamide], in series [1], the inhibition at 0.05 µM is 96%. In series [2], the Ki was 0.07 nM. This compound yielded an EC50 in series [3] of 0.01 µg/mL (≈ 0.0149 µM). Besides, the “Cytotoxicity TC50” value in the series on CEM-SS cell is more than 1.0 µg/mL. The compound further had an AUC in series [4] (Id (in the duodenum)) of 105 µg·min/mL. Besides, in series [4], the “F (biological utilization rate of administration in the duodenum)” value was 89%, the MRT amounted to 1.13 h and the “T1/2 (λ)” value was 1.05 h. In series [4] (Iv (intravenous)), this compound had an AUC of 119 µg·min/mL.
`CC[C@H](NC(=O)COc1cccc(N(C)C)c1)C(=O)N[C@@H](Cc1ccccc1)[C@H](O)C(=O)N1CSC(C)(C)[C@H]1C(=O)NC(C)(C)C` [Example 36, (R)-N-tert-butyl-3-{(2S,3S)-2-hydroxy-3-[(S)-2-(3-dimethylaminophenoxyacetyl)aminobutanoyl]amino-4-phenylbutanoyl}-5,5-dimethyl-1,3-thiazolidine-4-car boxamide]: the inhibition at 0.05 µM in series [1] was 95%. In addition, the EC50 in series [3] was 0.017 µg/mL (≈ 0.0259 µM). In addition, in the series on CEM-SS cell, the “Cytotoxicity TC50” value is more than 1.0 µg/mL. In addition, in series [4] (Id (in the duodenum)), the AUC was found to be 185 µg·min/mL. Besides, in series [4], the “F (biological utilization rate of administration in the duodenum)” value is on record as 82%, the MRT was determined as 2.07 h and the “T1/2 (λ)” value was 1.83 h. The compound also yielded an AUC in series [4] (Iv (intravenous)) of 226 µg·min/mL.
